Data from patent publication US4338330A, “Benzimidazole derivatives, their use, and compositions containing these derivatives” (Continental Pharma, priority 1979, dated 1982).
Read-outs that look alike come from different tables or passages of the source.

Experiments:
[1] = tested on: isolated guinea pig auricles; experiment: Chronotrope effect of the substance on isolated auricles; settings: 10^-6 M, 20 minutes, Tyrode, 29° C.
Procedure: The β-lytic effect was searched on the chronotropic response to noradrenaline of isolated guinea pig auricles. Auricles were incubated for 20 minutes in a Tyrode solution at 29° C. in the presence of the substance to be tested at the concentration of 10^-6 M. A positive (+) or negative (-) chronotrope effect of the substance was noted using the following scores: […]

[2] = tested on: guinea pig ileum contractions induced by acetylcholine; experiment: Antispasmodic activity against ileum contractions induced by acetylcholine
Procedure: (§1) The antispasmodic activity of the studied substances was examined against guinea pig ileum contractions induced by histamine and acetylcholine.
(§2) These experiences allow to make it obvious an antihistaminic, anticholinergic or musculotrope activity. The response to the contracting agent (sub-maximum concentration) is obtained every 5 minutes before and after injection of increasing concentrations of tested products (10^-7 M to 10^-4 M). The inhibition percentage under the influence of tested products is calculated and the theoretical concentration giving 50% of inhibition is graphically determined for each experience. These values are expressed in -log CI50 (M).

[3] = tested on: chronotropic response to noradrenaline of isolated guinea pig auricles; experiment: β-lytic effect on the chronotropic response to noradrenaline of isolated auricles
Procedure: The β-lytic effect was searched on the chronotropic response to noradrenaline of isolated guinea pig auricles. Auricles were incubated for 20 minutes in a Tyrode solution at 29° C. in the presence of the substance to be tested at the concentration of 10^-6 M. A positive (+) or negative (-) chronotrope effect of the substance was noted using the following scores:
Then, the chronotrope effect of cumulative increasing concentrations of noradrenaline was recorded. The pD2 (-log CE50) value was calculated. A score of β-lytic activity of the substance was given as follows:
If the score at concentration of 10^-6 M was 3 or 4, the effect of the substance was examined at concentration of 10^-7 M and a score was recorded according to the same procedure.

[4] = Antihypertensive activity, oral, unanesthetized spontaneously hypertensive rats; format: in vivo
Procedure: […] Only rats having a systolic pressure of 180 to 220 mm Hg are used. Two rats are used by product. The treatments are administered without the knowledge of the person making the measure.
The antihypertensive effects were recorded according to a score followed by an index. The scoring system is as follows.
The index is calculated by multiplying the systolic pressure difference (cmHg) measured every 30 minutes after the treatment, by a coefficient of 1 to 6 corresponding to times of 30 to 180 minutes.

[5] = tested on: guinea pig ileum contractions induced by histamine; experiment: Antispasmodic activity against ileum contractions induced by histamine
Procedure: as §1, §2

[6] = LD50 in mice, oral (Lichtfield and Wilcoxon method); format: in vivo
Procedure: LD50 were determined according to the Lichtfield and Wilcoxon method (J. Pharmacol. Exp. Ther. 96, 99, 1949) and expressed in mg/kg. The products were administered to mice orally.

[7] = 60 mg/kg oral, spontaneously hypertensive rats
[8] = 60 mg/kg oral, systolic pressure difference (cmHg) every 30 min multiplied by time coefficient 1 to 6

| Compound | Chronotrope effect (score) [1] | Antispasmodic activity, Ac. Chol. (-log CI50 (M)) [2] | β-lytic effect (score) ([3]; 10^-6 M) | β-lytic effect (score) ([3]; 10^-7 M) | Antihypertensive activity (score) [4, 7] | Antispasmodic activity, Hist. (-log CI50 (M)) [5] | further results |
| --- | --- | --- | --- | --- | --- | --- | --- |
| CC(C)(C)NCC(O)COc1ccc(-c2nc3ccccc3[nH]2)cc1 (centres unmarked) [Compound 4, 2-[4-(3-t-butylamino-2-hydroxypropoxy)phenyl]benzimidazole] | 0 (if the frequency modification was comprised between +6 and -6) | 5.72 -log CI50 (M) | 3 (if 6.00≥pD2 ≥5.51) | 1 (if 6.80≥pD2 ≥6.41) | ++++ (reduction>50 mm Hg) | 5.64 -log CI50 (M) | Antihypertensive activity (index) [4, 8]: 192; LD50 ([6]; mouse, in vivo, po, read-out: LD50): 1420 mg/kg |
| CC(C)NCC(O)COc1ccc(-c2nc3ccccc3[nH]2)cc1 (centres unmarked) [Compound 8, 2-[4-(3-isopropylamino-2-hydroxypropoxy)phenyl]benzimidazole] | 0 (if the frequency modification was comprised between +6 and -6) | 4.95 -log CI50 (M) | 4 (if pD2 ≤5.50) | – | – | 4.65 -log CI50 (M) | Antihypertensive activity (index) ([4]; at 10 mg, oral): 66; Antihypertensive activity (score) ([4]; at 10 mg, oral): +++ (reduction of 30 to 50 mm Hg); LD50 [6]: > 2248 mg/kg |
| CC(C)NCC(O)COc1ccc(-c2nc3ccccc3[nH]2)cc1 (centres unmarked) [Compound 9, 2-[4-(3-isopropylamino-2-hydroxypropoxy)phenyl]benzimidazole] | 0 (if the frequency modification was comprised between +6 and -6) | 4.60 -log CI50 (M) | 4 (if pD2 ≤5.50) | – | – | 4.75 -log CI50 (M) | Antihypertensive activity (index) ([4]; at 10 mg, oral): 68; Antihypertensive activity (score) ([4]; at 10 mg, oral): +++ (reduction of 30 to 50 mm Hg); LD50 [6]: 2620 mg/kg |
| CC(C)NCC(O)COc1ccc(-c2nc3ccccc3[nH]2)cc1 (centres unmarked) [Compound 10, 2-[4-(3-isopropylamino-2-hydroxypropoxy)phenyl]benzimidazole] | 0 (if the frequency modification was comprised between +6 and -6) | 4.95 -log CI50 (M) | 4 (if pD2 ≤5.50) | – | – | 4.31 -log CI50 (M) | Antihypertensive activity (index) ([4]; at 10 mg, oral): 61; Antihypertensive activity (score) ([4]; at 10 mg, oral): +++ (reduction of 30 to 50 mm Hg); LD50 [6]: 1960 mg/kg |
| CC(C)NCC(O)COc1ccc(-c2nc3ccccc3[nH]2)cc1 (centres unmarked) [Compound 11, 2-[4-(3-isopropylamino-2-hydroxypropoxy)phenyl]benzimidazole (dihydrated glucuronate)] | 1 | 4.30 -log CI50 (M) | 4 (if pD2 ≤5.50) | – | – | 4.52 -log CI50 (M) | Antihypertensive activity (index) ([4]; at 10 mg, oral): 51; Antihypertensive activity (score) ([4]; at 10 mg, oral): +++ (reduction of 30 to 50 mm Hg); LD50 [6]: 1494 mg/kg |
| CC(C)NCC(O)COc1ccc(-c2nc3c([N+](=O)[O-])cccc3[nH]2)cc1 (centres unmarked) [Compound 17] | 0 (if the frequency modification was comprised between +6 and -6) | 5.60 -log CI50 (M) | 3 (if 6.00≥pD2 ≥5.51) | 2 (if 6.40≥pD2 ≥6.01) | ++++ (reduction>50 mm Hg) | 5.15 -log CI50 (M) | Antihypertensive activity (index) [4, 8]: 89 |
| OC(CNC1CCCCC1)COc1ccc(-c2nc3ccccc3[nH]2)cc1 (centres unmarked) [Compound 18] | 0 (if the frequency modification was comprised between +6 and -6) | 5.21 -log CI50 (M) | 1 (if 6.80≥pD2 ≥6.41) | – | +++ (reduction of 30 to 50 mm Hg) | 5.45 -log CI50 (M) | Antihypertensive activity (index) [4, 8]: 83 |
| COc1ccc2[nH]c(-c3ccc(OCC(O)CNC(C)C)cc3)nc2c1 (centres unmarked) [Compound 19] | 1 | 4.70 -log CI50 (M) | 4 (if pD2 ≤5.50) | – | +++ (reduction of 30 to 50 mm Hg) | 4.99 -log CI50 (M) | Antihypertensive activity (index) [4, 8]: 59 |
| Cc1cc(-c2nc3ccccc3[nH]2)ccc1OCC(O)CNC(C)C (centres unmarked) [Compound 20] | 0 (if the frequency modification was comprised between +6 and -6) | – | 4 (if pD2 ≤5.50) | 1 (if 6.80≥pD2 ≥6.41) | 0 (reduction <10 mm Hg) | – | – |
| OC(CNCCOc1ccc(Cl)cc1)COc1ccc(-c2nc3ccccc3[nH]2)cc1 (centres unmarked) [Compound 21] | – | – | – | – | 0 (reduction <10 mm Hg) | – | – |
| Cc1ccc(OCCNCC(O)COc2ccc(-c3nc4ccccc4[nH]3)cc2)cc1 (centres unmarked) [Compound 22] | 0 (if the frequency modification was comprised between +6 and -6) | 5,35 -log CI50 (M) | 2 (if 6.40≥pD2 ≥6.01) | – | 0 (reduction <10 mm Hg) | 5,65 -log CI50 (M) | – |
| CC(C)NCC(O)COc1ccc(-c2nc3cc([N+](=O)[O-])ccc3[nH]2)cc1 (centres unmarked) [Compound 24, 2-[4-(3-isopropylamino-2-hydroxypropoxy)-phenyl]-5(6)nitrobenzimidazole] | 0 (if the frequency modification was comprised between +6 and -6) | 5,45 -log CI50 (M) | 3 (if 6.00≥pD2 ≥5.51) | 2 (if 6.40≥pD2 ≥6.01) | – | 5,50 -log CI50 (M) | – |
| COc1cc(-c2nc3ccccc3[nH]2)ccc1OCC(O)CNC(C)C (centres unmarked) [Compound 25, 2-[4-(3-isopropylamino-2-hydroxypropoxy)-3-methoxyphenyl]benzimidazole] | 0 (if the frequency modification was comprised between +6 and -6) | – | 3 (if 6.00≥pD2 ≥5.51) | 1 (if 6.80≥pD2 ≥6.41) | – | – | – |
| CC(C)C(=O)NCCNCC(O)COc1ccc(-c2nc3ccccc3[nH]2)cc1 (centres unmarked) [Compound 26, 2-{4-[3-(2-isobutyramidoethyl)amino-2-hydroxypropoxy]phenyl}benzimidazole] | 0 (if the frequency modification was comprised between +6 and -6) | – | 4 (if pD2 ≤5.50) | 3 (if 6.00≥pD2 ≥5.51) | – | – | – |
| O=C(Cc1ccccc1)NCCNCC(O)COc1ccc(-c2nc3ccccc3[nH]2)cc1 (centres unmarked) [Compound 27, 2-{4-[3-(2-phenylacetamidoethyl)amino-2-hydroxypropoxy]phenyl}benzimidazole] | 0 (if the frequency modification was comprised between +6 and -6) | – | 4 (if pD2 ≤5.50) | 3 (if 6.00≥pD2 ≥5.51) | – | – | – |
| C[C@](N)(Cc1ccc(O)c(O)c1)C(=O)O [alpha-methyldopa, reference compound] | – | – | – | – | – | – | Antihypertensive activity (index) ([4]; 100 mg/kg oral): 47; Antihypertensive activity (score) ([4]; 100 mg/kg oral): +++ (reduction of 30 to 50 mm Hg) |
| COC(=O)[C@H]1[C@H]2C[C@@H]3c4[nH]c5cc(OC)ccc5c4CCN3C[C@H]2C[C@@H](OC(=O)c2cc(OC)c(OC)c(OC)c2)[C@@H]1OC [reserpine, reference compound] | – | – | – | – | – | – | Antihypertensive activity (index) ([4]; 3 mg/kg oral): 53; Antihypertensive activity (score) ([4]; 3 mg/kg oral): +++ (reduction of 30 to 50 mm Hg) |
